The assay concerns the target human MDM2 protein (amino acids 2-188) (Homo sapiens (Human), UniProt Q00987). The assay is described as follows: TR-FRET assay, p53-MDM2 Assay 2 (modified). Type of assay: binding. A digest of the protocol: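 Biotinylated human MDM2 (aa 2–188, 1.25 nM) was preincubated 15 min at room temperature with 0.625 nM Eu-streptavidin, then 10 nM Cy5-p53 peptide (aa 18–26) added for 15 min. TR-FRET ratio 665/620 nm (excitation 340 nm) was read; IC50 came from curve fitting.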
For orientation: Time-resolved FRET reads energy transfer from a long-lived donor to a nearby acceptor.

The mark [1] stands for this setting: TR-FRET, 0.1 nM MDM2, 0.1 nM Europium labeled streptavidin, Tecan genios Pro reader, read-out: IC50 p53-MDM2 Assay 2.

pIC50: −log10 of the molar value. Like-named read-outs stand apart in the source and are kept apart here.

The pIC50 is the IC50 on a negative log10 scale, so that one unit is a factor of ten.

human MDM2 protein (amino acids 2-188), sequence (Q00987 2-188): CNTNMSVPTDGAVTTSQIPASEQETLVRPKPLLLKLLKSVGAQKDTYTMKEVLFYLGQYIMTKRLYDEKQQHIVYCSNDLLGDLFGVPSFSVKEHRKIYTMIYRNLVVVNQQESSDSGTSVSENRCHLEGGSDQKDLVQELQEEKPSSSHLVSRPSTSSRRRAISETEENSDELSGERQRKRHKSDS

Regarding `COc1ccc(CO)cc1-c1cc2c(n1C(C)C)C(c1ccc(Cl)cc1C)N(c1cccc(Cl)c1F)C2=O` (stereo not shown) [Example 4, 5-(3-Chloro-2-fluoro-phenyl)-6-(4-chloro-2-methyl-phenyl)-2-(5-hydroxymethyl-2-methoxy-phenyl)-1-isopropyl-5,6-dihydro-1H-pyrrolo[3,4-b]pyrrol-4-one], the pIC50 under setting [1] is 9.54.
On to `COc1ncccc1-c1cc2c(n1C(C)C)C(c1ccc(Cl)cc1)N(c1cc(Cl)ccc1C)C2=O` (stereo not shown) [Example 12, 5-(5-Chloro-2-methyl-phenyl)-6-(4-chloro-phenyl)-1-isopropyl-2-(2-methoxy-pyridin-3-yl)-5,6-dihydro-1H-pyrrolo[3,4-b]pyrrol-4-one], for which the pIC50 is 9.31.
For the compound `COc1ccccc1-c1cc2c(n1C(C)C)C(c1ccc(Cl)cc1C)N(C1CCOCC1)C2=O` (stereo not shown) [Example 104, 6-(4-Chloro-2-methyl-phenyl)-1-isopropyl-2-(2-methoxy-phenyl)-5-(tetrahydro-pyran-4-yl)-5,6-dihydro-1H-pyrrolo[3,4-b]pyrrol-4-one], the negative-log IC50 (pIC50) under setting [1] was 7.81.
For `COc1ncc(-c2cc3c(n2C(C)C)C(c2ccc(Cl)c(F)c2)N(c2cc(Cl)c[nH]c2=O)C3=O)c(OC)n1` (stereo not shown) [Example 202, 6-(4-Chloro-3-fluoro-phenyl)-5-(5-chloro-2-oxo-1,2-dihydro-pyridin-3-yl)-2-(2,4-dimethoxy-pyrimidin-5-yl)-1-isopropyl-5,6-dihydro-1H-pyrrolo[3,4-b]pyrrol-4-one], the negative logarithm of the IC50 (pIC50) under setting [1] was 9.70.
Still for that read-out and setting: to `CNC(=O)c1ccc(OC)c(-c2cc3c(n2C(C)C)C(c2ccc(Cl)cc2)N(c2cc(Cl)c(=O)n(C)c2)C3=O)c1` (stereo not shown) [Example 49, 3-[5-(5-Chloro-1-methyl-6-oxo-1,6-dihydro-pyridin-3-yl)-6-(4-chloro-phenyl)-1-isopropyl-4-oxo-1,4,5,6-tetrahydro-pyrrolo[3,4-b]pyrrol-2-yl]-4-methoxy-N-methyl-benzamide] belongs 9.86; to `COc1nc(N(C)C)ncc1-c1cc2c(n1C(C)C)[C@H](c1ccc(Cl)c(F)c1)N(c1cc(Cl)c[nH]c1=O)C2=O` [Example 227, (S)-6-(4-Chloro-3-fluoro-phenyl)-5-(5-chloro-2-oxo-1,2-dihydro-pyridin-3-yl)-2-(2-dimethylamino-4-methoxy-pyrimidin-5-yl)-1-isopropyl-5,6-dihydro-1H-pyrrolo[3,4-b]pyrrol-4-one], 10.15.
On the same count and under the same terms, the value for `COc1ccc(C(=O)O)cc1-c1cc2c(n1C(C)C)C(c1ccc(Cl)cc1)N(c1ccc(F)c(Cl)c1)C2=O` (stereo not shown) [Example 56, 3-[5-(3-Chloro-4-fluoro-phenyl)-6-(4-chloro-phenyl)-1-isopropyl-4-oxo-1,4,5,6-tetrahydro-pyrrolo[3,4-b]pyrrol-2-yl]-4-methoxy-benzoic acid] was 9.45; that for `CNc1ncc(-c2cc3c(n2C(C)C)C(c2ccc(Cl)cc2)N(c2c[nH]c(=O)c(Cl)c2)C3=O)c(OC)n1` (stereo not shown) [Example 152, 5-(5-Chloro-6-oxo-1,6-dihydro-pyridin-3-yl)-6-(4-chloro-phenyl)-1-isopropyl-2-(4-methoxy-2-methylamino-pyrimidin-5-yl)-5,6-dihydro-1H-pyrrolo[3,4-b]pyrrol-4-one] was 9.78.
As to `COc1nc(N)ncc1-c1cc2c(n1C(C)C)C(c1ccc(C#N)cc1)N(c1c[nH]c(=O)c(Cl)c1)C2=O` (stereo not shown) [Example 134, 4-[2-(2-Amino-4-methoxy-pyrimidin-5-yl)-5-(5-chloro-6-oxo-1,6-dihydro-pyridin-3-yl)-1-isopropyl-4-oxo-1,4,5,6-tetrahydro-pyrrolo[3,4-b]pyrrol-6-yl]-benzonitrile], the negative logarithm of the IC50 (pIC50) under setting [1] was 8.90.
On the same count and under the same terms, to `COc1ccc(-c2nnn[nH]2)cc1-c1cc2c(n1C(C)C)C(c1ccc(Cl)cc1)N(c1cc(Cl)ccc1C)C2=O` (stereo not shown) [Example 34, 5-(5-Chloro-2-methyl-phenyl)-6-(4-chloro-phenyl)-1-isopropyl-2-[2-methoxy-5-(1H-tetrazol-5-yl)-phenyl]-5,6-dihydro-1H-pyrrolo[3,4-b]pyrrol-4-one] belongs 9.73; to `COc1ccc(CC(=O)O)cc1-c1cc2c(n1C(C)C)[C@@H](c1ccc(Cl)cc1)N(c1cc(Cl)ccc1C)C2=O` [Example 92, {3-[(R)-5-(5-Chloro-2-methyl-phenyl)-6-(4-chloro-phenyl)-1-isopropyl-4-oxo-1,4,5,6-tetrahydro-pyrrolo[3,4-b]pyrrol-2-yl]-4-methoxy-phenyl}-acetic acid], 7.38; to `COc1ccc(CO)cc1-c1cc2c(n1C(C)C)C(c1ccc(Cl)cc1)N(c1cc(Cl)ccc1C)C2=O` (stereo not shown) [Example 11, 5-(5-Chloro-2-methyl-phenyl)-6-(4-chloro-phenyl)-2-(5-hydroxymethyl-2-methoxy-phenyl)-1-isopropyl-5,6-dihydro-1H-pyrrolo[3,4-b]pyrrol-4-one], 9.95.
On the same count and under the same terms, to `CNC(=O)c1ccc(OC)c(-c2cc3c(n2C(C)C)C(c2ccc(Cl)cc2)N(C2CCOCC2)C3=O)c1` (stereo not shown) [Example 75, 3-[6-(4-Chloro-phenyl)-1-isopropyl-4-oxo-5-(tetrahydro-pyran-4-yl)-1,4,5,6-tetrahydro-pyrrolo[3,4-b]pyrrol-2-yl]-4-methoxy-N-methyl-benzamide] belongs 8.96; to `COc1nc(N(C)C)ncc1-c1cc2c(n1C(C)C)C(c1ccc(C#N)cc1)N(c1ccc(F)c(Cl)c1)C2=O` (stereo not shown) [Example 93, 4-[5-(3-Chloro-4-fluoro-phenyl)-2-(2-dimethylamino-4-methoxy-pyrimidin-5-yl)-1-isopropyl-4-oxo-1,4,5,6-tetrahydro-pyrrolo[3,4-b]pyrrol-6-yl]-benzonitrile], 9.44; to `COc1nc(N(C)C)ncc1-c1cc2c(n1C(C)C)C(c1ccc(C#N)cc1)N([C@H]1CC[C@H](O)CC1)C2=O` (stereo partly drawn) [Example 174, 4-[2-(2-Dimethylamino-4-methoxy-pyrimidin-5-yl)-5-(trans-4-hydroxy-cyclohexyl)-1-isopropyl-4-oxo-1,4,5,6-tetrahydro-pyrrolo[3,4-b]pyrrol-6-yl]-benzonitrile], 8.78.
The same measure, in the same setting: the value for `COc1ncc(-c2cc3c(n2C(C)C)C(c2ccc(Cl)cc2)N([C@H]2CC[C@H](O)CC2)C3=O)c(OC)n1` (stereo partly drawn) [Example 66, 6-(4-Chloro-phenyl)-2-(2,4-dimethoxy-pyrimidin-5-yl)-5-(trans-4-hydroxy-cyclohexyl)-1-isopropyl-5,6-dihydro-1H-pyrrolo[3,4-b]pyrrol-4-one] was 8.86; that for `COc1nc(N(C)C)ncc1-c1cc2c(n1C(C)C)C(c1ccc(C#N)c(F)c1)N(c1cc(Cl)cn(C)c1=O)C2=O` (stereo not shown) [Example 199, 4-[5-(5-Chloro-1-methyl-2-oxo-1,2-dihydro-pyridin-3-yl)-2-(2-dimethylamino-4-methoxy-pyrimidin-5-yl)-1-isopropyl-4-oxo-1,4,5,6-tetrahydro-pyrrolo[3,4-b]pyrrol-6-yl]-2-fluoro-benzonitrile] was 9.59; that for `COc1ccccc1-c1cc2c(n1C(C)C)C(c1ccc(Cl)cc1)N(C1CCOCC1)C2=O` (stereo not shown) [Example 74, 6-(4-Chloro-phenyl)-1-isopropyl-2-(2-methoxy-phenyl)-5-(tetrahydro-pyran-4-yl)-5,6-dihydro-1H-pyrrolo[3,4-b]pyrrol-4-one] was 8.59.
On to `COc1nc(N)ncc1-c1cc2c(n1C(C)C)[C@H](c1ccc(C#N)cc1)N(c1ccc(F)c(Cl)c1)C2=O` [Example 171, 4-[(S)-2-(2-Amino-4-methoxy-pyrimidin-5-yl)-5-(3-chloro-4-fluoro-phenyl)-1-isopropyl-4-oxo-1,4,5,6-tetrahydro-pyrrolo[3,4-b]pyrrol-6-yl]-benzonitrile], for which the pIC50 under setting [1] is 9.16.
The same measure, in the same setting: the value for `[2H]C([2H])([2H])Oc1ncc(-c2cc3c(n2C(C)C)[C@H](c2ccc(Cl)cc2)N(c2cc(Cl)c(=O)n(C)c2)C3=O)c(OC([2H])([2H])[2H])n1` [Example 218, (S)-5-(5-Chloro-1-methyl-6-oxo-1,6-dihydro-pyridin-3-yl)-6-(4-chloro-phenyl)-2-(2,4-d6-dimethoxy-pyrimidin-5-yl)-1-isopropyl-5,6-dihydro-1H-pyrrolo[3,4-b]pyrrol-4-one] was 9.97.
Still for that read-out and setting: to `COc1nc(N)ncc1-c1cc2c(n1C(C)C)C(c1ccc(C#N)cc1)N(c1ccc(F)c(Cl)c1)C2=O` (stereo not shown) [Example 39, 4-[2-(2-Amino-4-methoxy-pyrimidin-5-yl)-5-(3-chloro-4-fluoro-phenyl)-1-isopropyl-4-oxo-1,4,5,6-tetrahydro-pyrrolo[3,4-b]pyrrol-6-yl]-benzonitrile] belongs 9.25.
Still for that read-out and setting: the value for `COc1nc(N)ncc1-c1cc2c(n1C(C)C)C(c1ccc(Cl)cc1)N(c1cc(Cl)cn(C)c1=O)C2=O` (stereo not shown) [Example 71, 2-(2-Amino-4-methoxy-pyrimidin-5-yl)-5-(5-chloro-1-methyl-2-oxo-1,2-dihydro-pyridin-3-yl)-6-(4-chloro-phenyl)-1-isopropyl-5,6-dihydro-1H-pyrrolo[3,4-b]pyrrol-4-one] was 9.20; that for `COc1ncc(-c2cc3c(n2C(C)C)[C@H](c2ccc(C#N)cc2)N(c2cc(Cl)cn(C)c2=O)C3=O)c(OC)n1` [Example 215, 4-[(S)-5-(5-Chloro-1-methyl-2-oxo-1,2-dihydro-pyridin-3-yl)-2-(2,4-dimethoxy-Pyrimidin-5-yl)-1-isopropyl-4-oxo-1,4,5,6-tetrahydro-pyrrolo[3,4-b]pyrrol-6-yl]-benzonitrile] was 9.28; that for `CNC(=O)c1ccc(OC)c(-c2cc3c(n2C(C)C)C(c2ccc(Cl)cc2)N([C@H]2CC[C@H](O)CC2)C3=O)c1` (stereo partly drawn) [Example 64, 3-[6-(4-Chloro-phenyl)-5-(trans-4-hydroxy-cyclohexyl)-1-isopropyl-4-oxo-1,4,5,6-tetrahydro-pyrrolo[3,4-b]pyrrol-2-yl]-4-methoxy-N-methyl-benzamide] was 9.00.
Consider `COc1ccc(-c2cc3c(n2C(C)C)C(c2ccc(Cl)cc2)N(c2cc(Cl)ccc2C)C3=O)c(OC)c1` (stereo not shown) [Example 38, 5-(5-Chloro-2-methyl-phenyl)-6-(4-chloro-phenyl)-2-(2,4-dimethoxy-phenyl)-1-isopropyl-5,6-dihydro-1H-pyrrolo[3,4-b]pyrrol-4-one], for which, under setting [1], the pIC50 was 9.35.

The record behind these values is patent publication US9365576B2, “Pyrrolopyrrolidinone compounds” (Novartis AG, priority 2012, dated 2016).
